How the values were obtained:
rat mGlu2 receptor = target: T1, rat mGlu2 receptor (Rattus norvegicus, UniProt P31421); assay: [3H]-LY354740 binding on mGlu2 transfected CHO cell membranes; conditions: [3H]-LY354740 (10 nM) displacement
T1 construct: expressed in transfected cells; membranes prepared from them
Source text: [^3H]-LY354740 Binding on mGlu2 Transfected CHO Cell Membranes. Transfection and Cell Culture
cDNA encoding the rat mGlu2 receptor protein in pBluescript II was subcloned into the eukaryotic expression vector pcDNA I-amp from Invitrogen Ltd (Paisley, UK). This vector construct (pcD1mGR2) was co-transfected with a psvNeo plasmid encoding the gene for neomycin resistance, into CHO cells by a modified calcium phosphate method described by Chen & Okayama (1988). The cells were maintained in Dulbecco's Modified Eagle medium with reduced L-glutamine (2 mM final concentration) and 10% dialysed foetal calf serum from Gibco-Invitrogen (Carlsbad, Calif., USA). Selection was made in the presence of G-418 (1000 ug/ml final) and […]. Clones were identified by reverse transcription of 5 μg total RNA, followed by PCR using mGlu2 receptor specific primers 5′-[…]-3′ and 5′-[…]-3′ in 60 mM Tris HCl (pH 10), 15 mM (NH4)2SO4, 2 mM MgCl2, 25 units/ml Taq Polymerase with 30 cycles annealing at 60° C. for 1 min., extention at 72° C. for 30 s, and 1 min. 95° C. denaturation.
Cells, cultured as above, were harvested and washed three times with cold PBS and frozen at −80° C. The pellet was resuspended in cold 20 mM HEPES-NaOH buffer containing 10 mM EDTA (pH 7.4), and homogenised with a polytron (Kinematica, A G, Littau, Switzerland) for 10 s at 10 000 rpm. After centrifugation for 30 min. at 4° C., the pellet was washed once with the same buffer, and once with cold 20 mM HEPES-NaOH buffer containing 0.1 mM EDTA, (pH 7.4). Protein content was measured using the micro BCA method from Pierce-Perbio (Rockford, Ill., USA) using bovine serum albumin as standard.
After thawing, the membranes were resuspended in cold 50 mM Tris-HCl buffer containing 2 mM MgCl2 (pH 7) (binding buffer). The final concentration of the membranes in the assays was 25 μg protein/ml. Inhibition experiments were performed with membranes incubated with 10 nM [^3H]-LY354740 at room temperature, for 1 hour, in presence of various concentrations of the compound to be tested. Following the incubations, membranes were filtered onto Whatmann GF/B glass fiber filters and washed 5 times with cold binding buffer. Non specific binding was measured in the presence of 10 μM DCG IV. After transfer of the filters into plastic vials containing 10 ml of Ultima-gold scintillation fluid from Perkin-Elmer (Boston, Mass., USA), the radioactivity was measured by liquid scintillation in a Tri-Garb 2500 TR counter (Packard, Zürich, Switzerland).
The inhibition curves were fitted with a four parameter logistic equation giving IC50 values, and Hill coefficients.

T1 sequence (P31421 19-872): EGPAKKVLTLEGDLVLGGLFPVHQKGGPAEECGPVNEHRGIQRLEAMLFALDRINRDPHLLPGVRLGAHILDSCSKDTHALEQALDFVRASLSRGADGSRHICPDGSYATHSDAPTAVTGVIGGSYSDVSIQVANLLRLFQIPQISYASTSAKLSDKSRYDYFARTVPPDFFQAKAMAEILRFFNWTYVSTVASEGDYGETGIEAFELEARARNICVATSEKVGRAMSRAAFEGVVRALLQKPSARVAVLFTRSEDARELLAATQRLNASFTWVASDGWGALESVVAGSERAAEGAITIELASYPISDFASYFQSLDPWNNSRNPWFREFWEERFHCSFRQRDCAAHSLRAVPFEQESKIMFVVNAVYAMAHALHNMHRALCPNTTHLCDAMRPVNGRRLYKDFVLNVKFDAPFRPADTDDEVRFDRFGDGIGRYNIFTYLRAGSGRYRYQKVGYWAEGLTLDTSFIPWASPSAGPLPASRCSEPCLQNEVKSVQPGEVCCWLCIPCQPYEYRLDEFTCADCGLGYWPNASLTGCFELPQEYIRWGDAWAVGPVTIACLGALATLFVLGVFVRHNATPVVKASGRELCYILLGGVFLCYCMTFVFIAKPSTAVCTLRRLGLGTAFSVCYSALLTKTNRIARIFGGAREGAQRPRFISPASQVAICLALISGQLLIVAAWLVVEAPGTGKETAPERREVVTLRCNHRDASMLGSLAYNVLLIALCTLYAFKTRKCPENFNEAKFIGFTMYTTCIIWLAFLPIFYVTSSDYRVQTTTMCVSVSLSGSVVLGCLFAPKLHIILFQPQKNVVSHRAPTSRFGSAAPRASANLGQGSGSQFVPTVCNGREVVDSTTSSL

Compound: NS(=O)(=O)c1ccc(-c2noc(-c3cnn4c(C(F)(F)F)cc(-c5ccc(C(F)(F)F)cc5)nc34)n2)cc1 [Example 1, 4-{5-[7-Trifluoromethyl-5-(4-trifluoromethyl-phenyl)-pyrazolo[1,5-a]pyrimidin-3-yl]-[1,2,4]oxadiazol-3-yl}-benzenesulfonamide]
- melting point: 275 °C
- Ki (rat mGlu2 receptor): 5.6 nM

Compound: FC(F)(F)c1ccc(-c2cc(C(F)(F)F)n3ncc(-c4nc(-c5cccnc5)no4)c3n2)cc1 [Example 3, 3-(3-Pyridin-3-yl-[1,2,4]oxadiazol-5-yl)-7-trifluoromethyl-5-(4-trifluoromethyl-phenyl)-pyrazolo[1,5-a]pyrimidine]
- melting point: 199 °C
- Ki (rat mGlu2 receptor): 48.1 nM

Compound: Cc1cc(-c2ccc(C(F)(F)F)cc2)cn2c(-c3nc(-c4ccc(N)nc4)no3)cnc12 [Example 47, 5-{5-[8-Methyl-6-(4-trifluoromethyl-phenyl)-imidazo[1,2-a]pyridin-3-yl]-[1,2,4]oxadiazol-3-yl}-pyridin-2-ylamine]
- melting point: 257 °C
- Ki (rat mGlu2 receptor): 7.7 nM

Compound: Nc1ccc(-c2noc(-c3cnn4c(C(F)(F)F)cc(-c5cccc(C(F)(F)F)c5)nc34)n2)cn1 [Example 34, 5-{5-[7-Trifluoromethyl-5-(3-trifluoromethyl-phenyl)-pyrazolo[1,5-a]pyrimidin-3-yl]-[1,2,4]oxadiazol-3-yl}-pyridin-2-ylamine]
- melting point: 264 °C
- Ki (rat mGlu2 receptor): 51 nM

Compound: NS(=O)(=O)c1ccc(-c2nc(-c3ncn4c(C(F)(F)F)cc(-c5ccc(C(F)(F)F)cc5)nc34)no2)cc1 [Example 21, 4-{3-[4-Trifluoromethyl-2-(4-trifluoromethyl-phenyl)-imidazo[1,5-a]pyrimidin-8-yl]-[1,2,4]oxadiazol-5-yl}-benzenesulfonamide]
- melting point: 303 °C
- Ki (rat mGlu2 receptor): 10.2 nM

Compound: NS(=O)(=O)c1ccc(-c2noc(-c3ncn4c(C(F)(F)F)cc(-c5ccc(C(F)(F)F)cc5)nc34)n2)s1 [Example 42, 5-{5-[4-Trifluoromethyl-2-(4-trifluoromethyl-phenyl)-imidazo[1,5-a]pyrimidin-8-yl]-[1,2,4]oxadiazol-3-yl}-thiophene-2-sulfonic acid amide]
- melting point: 295 °C
- Ki (rat mGlu2 receptor): 14.6 nM

Compound: Nc1ncc(-c2noc(-c3cnn4c(C(F)(F)F)cc(-c5ccc(C(F)(F)F)cc5)nc34)n2)cn1 [Example 46, 5-{5-[7-Trifluoromethyl-5-(4-trifluoromethyl-phenyl)-pyrazolo[1,5-a]pyrimidin-3-yl]-[1,2,4]oxadiazol-3-yl}-pyrimidin-2-ylamine]
- melting point: 254 °C
- Ki (rat mGlu2 receptor): 14.5 nM

Compound: Cc1cc(-c2cc(C(F)F)n3ncc(-c4nc(-c5ccc(N)nc5)no4)c3n2)ccc1Cl [Example 77, 5-{5-[5-(4-Chloro-3-methyl-phenyl)-7-difluoromethyl-pyrazolo[1,5-a]pyrimidin-3-yl]-[1,2,4]oxadiazol-3-yl}-pyridin-2-ylamine]
- melting point: 243 °C
- Ki (rat mGlu2 receptor): 25.5 nM

Compound: Cc1cc(-c2ccc(C(F)(F)F)cc2)cn2c(-c3nc(-c4cnc(N)nc4)no3)cnc12 [Example 48, 5-{5-[8-Methyl-6-(4-trifluoromethyl-phenyl)-imidazo[1,2-a]pyridin-3-yl]-[1,2,4]oxadiazol-3-yl}-pyrimidin-2-ylamine]
- melting point: 302 °C
- Ki (rat mGlu2 receptor): 6.5 nM

Compound: Cc1cc(-c2ccc(Cl)cc2)cn2c(-c3nc(-c4ccc(S(N)(=O)=O)s4)no3)cnc12 [Example 41, 5-{5-[6-(4-Chloro-phenyl)-8-methyl-imidazo[1,2-a]pyridin-3-yl]-[1,2,4]oxadiazol-3-yl}-thiophene-2-sulfonic acid amide]
- melting point: 271 °C
- Ki (rat mGlu2 receptor): 21.3 nM

Compound: NS(=O)(=O)c1ccc(-c2noc(-c3cnn4c(C5CC5)cc(-c5ccc(Cl)cc5)nc34)n2)s1 [Example 20, 5-{5-[5-(4-Chloro-phenyl)-7-cydopropyl-pyrazolo[1,5-a]pyrimidin-3-yl]-[1,2,4]oxadiazol-3-yl}-thiophene-2-sulfonic acid amide]
- melting point: 294 °C
- Ki (rat mGlu2 receptor): 16.1 nM

Compound: NS(=O)(=O)c1cccc(-c2noc(-c3cnc4c(C(F)(F)F)cc(-c5ccc(C(F)(F)F)cc5)cn34)n2)c1 [Example 11, 3-{5-[8-Trifluoromethyl-6-(4-trifluoromethyl-phenyl)-imidazo[1,2-a]pyridin-3-yl]-[1,2,4]oxadiazol-3-yl}-benzenesulfonamide]
- melting point: 297 °C
- Ki (rat mGlu2 receptor): 8.8 nM

Source: patent US8349844B2, “Substituted pyrazolo [1,5-A] pyrimidines as metabotropic glutamate antagonists” (Hoffmann-La Roche Inc., priority 2005, dated 2013)
